Experimental findings from patent US12509444B2, “Compounds and methods for CD73 modulation and indications therefor” (Plexxikon Inc., priority 2019, dated 2025) are described below.

pIC50: −log10 of the molar value.

Assay [1] has as its target T1, human CD73 (Homo sapiens, UniProt P21589).
T1 construct: expressed in transfected cells
T1 sequence (P21589 27-549): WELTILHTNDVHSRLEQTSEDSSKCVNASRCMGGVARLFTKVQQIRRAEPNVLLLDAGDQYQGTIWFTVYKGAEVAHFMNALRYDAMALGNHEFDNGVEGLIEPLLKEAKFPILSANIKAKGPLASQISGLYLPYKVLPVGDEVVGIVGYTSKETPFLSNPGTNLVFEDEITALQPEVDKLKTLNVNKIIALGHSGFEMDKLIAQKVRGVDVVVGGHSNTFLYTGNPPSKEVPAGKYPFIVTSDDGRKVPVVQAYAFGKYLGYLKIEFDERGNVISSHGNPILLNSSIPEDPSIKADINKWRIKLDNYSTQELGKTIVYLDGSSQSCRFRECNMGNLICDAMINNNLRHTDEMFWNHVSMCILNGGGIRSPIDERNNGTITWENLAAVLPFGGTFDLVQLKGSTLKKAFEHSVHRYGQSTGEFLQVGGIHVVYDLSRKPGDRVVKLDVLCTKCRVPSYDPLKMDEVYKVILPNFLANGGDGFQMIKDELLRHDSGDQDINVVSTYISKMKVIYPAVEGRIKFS
Kind of assay: Inhibitor activity against CD73 in cell based assay (CD73 expressing CHO-K1 cells). To be noted: CHO-K1 cells expressing human CD73, 150 μM AMP, 4 hours of incubation; read-out: CHO-K1 CELL VARIANT: CD73 IC50. Summed up: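 Residual supernatant AMP was quantified via CellTiter-Glo luminescence (1 μM ATP added, 30 min, room temperature) after a 4 h exposure of human CD73-expressing CHO-K1 cells to 150 μM AMP plus compound, top final 10 μM, 8 points. IC50 came from nonlinear regression of percent inhibition.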

Assay [2] addresses T2, Human CD73 (amino acid residues 27-549) (Homo sapiens, UniProt P21589).
T2 construct: Human CD73 (amino acid residues 27-549); His tag (N); made in house; host or cells: E. coli
T2 sequence (P21589 27-549): T1 sequence (P21589 27-549)
Kind of assay: CD73 enzymatic assay (luciferase-based indirect assay, CellTiter-Glo). The following applies: 0.4 nM CD73, 150 μM AMP, 1 hour at room temperature. Type of assay: biochemical. Summed up:
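Residual AMP inhibits luciferase, so luminescence reports CD73 turnover; read with CellTiter-Glo 2.0 plus 1 μM final ATP, 30 min. Reaction used 0.4 nM N-His CD73 (27-549, E. coli), 150 μM AMP, HEPES pH 7.4 with Tween 20, 1 h at room temperature. IC50 fitted by nonlinear regression.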

Turning to `O=C(N[C@H]1CC[C@@H](NC2CC3CCC2C3)CC1)O[C@@H]1CCN(c2cn[nH]c(=O)c2Cl)C1` (stereo partly drawn) [P-0488, (R)-1-(5-chloro-6-oxo-1,6-dihydropyridazin-4-yl)pyrrolidin-3-yl ((1R,4S)-4-(((1S,4R)-bicyclo[2.2.1]heptan-2-yl)amino)cyclohexyl)carbamate], the pIC50 in assay [1] and in assay [2] was 5.00 to 9.00 in each case.

For `O=C(N[C@H]1CC[C@@H](NC2CCS(=O)(=O)CC2)CC1)O[C@@H]1CCN(c2cn[nH]c(=O)c2Cl)C1` [P-0489, (R)-1-(5-chloro-6-oxo-1,6-dihydropyridazin-4-yl)pyrrolidin-3-yl ((1s,4S)-4-((1,1-dioxidotetrahydro-2H-thiopyran-4-yl)amino)cyclohexyl)carbamate], the pIC50 in assay [1] and in assay [2] was 5.00 to 9.00 in each case.

Turning to `O=C(NC1CCN(C(=O)Nc2ccc(F)cc2F)CC1)O[C@@H]1CCN(c2cn[nH]c(=O)c2Cl)C1` [P-0490, (R)-1-(5-chloro-6-oxo-1,6-dihydropyridazin-4-yl)pyrrolidin-3-yl (1-((2,4-difluorophenyl)carbamoyl)piperidin-4-yl)carbamate], the pIC50 in assay [1] and in assay [2] was 5.00 to 9.00 throughout.

As for `O=C(NC1CCN(C(=O)Nc2cc(F)ccc2F)CC1)O[C@@H]1CCN(c2cn[nH]c(=O)c2Cl)C1` [P-0491, (R)-1-(5-chloro-6-oxo-1,6-dihydropyridazin-4-yl)pyrrolidin-3-yl (1-((2,5-difluorophenyl)carbamoyl)piperidin-4-yl)carbamate], the pIC50 in assay [1] and in assay [2] was 5.00 to 9.00 each time.

Consider `O=C(NC1CCN(C(=O)Nc2ccc(OC(F)(F)F)cc2)CC1)O[C@@H]1CCN(c2cn[nH]c(=O)c2Cl)C1` [P-0492, (R)-1-(5-chloro-6-oxo-1,6-dihydropyridazin-4-yl)pyrrolidin-3-yl (1-((4-(trifluoromethoxy)phenyl)carbamoyl)piperidin-4-yl) carbamate], for which the pIC50 in assay [1] and in assay [2] was 5.00 to 9.00 throughout.

For the compound `O=C(NC1CCN(C(=O)Nc2cccc(OC(F)F)c2)CC1)O[C@@H]1CCN(c2cn[nH]c(=O)c2Cl)C1` [P-0493, (R)-1-(5-chloro-6-oxo-1,6-dihydropyridazin-4-yl)pyrrolidin-3-yl (1-((3-(difluoromethoxy)phenyl)carbamoyl)piperidin-4-yl) carbamate], the pIC50 in assay [1] and in assay [2] was 5.00 to 9.00 in each case.

Take `O=C(NC1CCN(C(=O)Nc2ccccc2Cl)CC1)O[C@@H]1CCN(c2cn[nH]c(=O)c2Cl)C1` [P-0494, (R)-1-(5-chloro-6-oxo-1,6-dihydropyridazin-4-yl)pyrrolidin-3-yl (1-((2-chlorophenyl)carbamoyl)piperidin-4-yl)carbamate]: the pIC50 in assay [1] and in assay [2] was 5.00 to 9.00 each time.

Turning to `O=C(NC1CCN(C(=O)Nc2cc(Cl)cc(Cl)c2)CC1)O[C@@H]1CCN(c2cn[nH]c(=O)c2Cl)C1` [P-0495, (R)-1-(5-chloro-6-oxo-1,6-dihydropyridazin-4-yl)pyrrolidin-3-yl (1-((3,5-dichlorophenyl)carbamoyl)piperidin-4-yl)carbamate], the pIC50 in assay [1] and in assay [2] was 5.00 to 9.00 in each case.

As to `N#Cc1c(N2CC[C@@H](OC(=O)NC3CCCC3)C2)cnn(CCO)c1=O` [P-0496, (R)-1-(5-cyano-1-(2-hydroxyethyl)-6-oxo-1,6-dihydropyridazin-4-yl)pyrrolidin-3-yl cyclopentylcarbamate], the pIC50 in assay [1] and in assay [2] was 5.00 to 9.00 throughout.

As to `N#Cc1c(N2CC[C@@H](OC(=O)NC3CCC(F)(F)CC3)C2)cnn(CCO)c1=O` [P-0497, (R)-1-(5-cyano-1-(2-hydroxyethyl)-6-oxo-1,6-dihydropyridazin-4-yl)pyrrolidin-3-yl (4,4-difluorocyclohexyl)carbamate], the pIC50 in assay [1] and in assay [2] was 5.00 to 9.00 throughout.

Regarding `Cc1onc(C(=O)N2CCC(NC(=O)O[C@@H]3CCN(c4cn[nH]c(=O)c4Cl)C3)CC2)c1C` [P-0498, (R)-1-(5-chloro-6-oxo-1,6-dihydropyridazin-4-yl)pyrrolidin-3-yl (1-(4,5-dimethylisoxazole-3-carbonyl)piperidin-4-yl)carbamate], the pIC50 in assay [1] and in assay [2] was 5.00 to 9.00 in each case.

`Cc1cc(C(=O)N2CCC(NC(=O)O[C@@H]3CCN(c4cn[nH]c(=O)c4Cl)C3)CC2)no1` [P-0499, (R)-1-(5-chloro-6-oxo-1,6-dihydropyridazin-4-yl)pyrrolidin-3-yl (1-(5-methylisoxazole-3-carbonyl)piperidin-4-yl)carbamate]: the pIC50 in assay [1] and in assay [2] was 5.00 to 9.00 in each case.

`Cc1nc(C)c(C(=O)N2CCC(NC(=O)O[C@@H]3CCN(c4cn[nH]c(=O)c4Cl)C3)CC2)o1` [P-0500, (R)-1-(5-chloro-6-oxo-1,6-dihydropyridazin-4-yl)pyrrolidin-3-yl (1-(2,4-dimethyloxazole-5-carbonyl)piperidin-4-yl)carbamate]: the pIC50 in assay [1] and in assay [2] was 5.00 to 9.00 each time.

With `Cc1nc(C(=O)N2CCC(NC(=O)O[C@@H]3CCN(c4cn[nH]c(=O)c4Cl)C3)CC2)cs1` [P-0501, (R)-1-(5-chloro-6-oxo-1,6-dihydropyridazin-4-yl)pyrrolidin-3-yl (1-(2-methylthiazole-4-carbonyl)piperidin-4-yl)carbamate], the pIC50 in assay [1] and in assay [2] was 5.00 to 9.00 in each case.

Turning to `Cc1occc1C(=O)N1CCC(NC(=O)O[C@@H]2CCN(c3cn[nH]c(=O)c3Cl)C2)CC1` [P-0502, (R)-1-(5-chloro-6-oxo-1,6-dihydropyridazin-4-yl)pyrrolidin-3-yl (1-(2-methylfuran-3-carbonyl)piperidin-4-yl)carbamate], the negative logarithm of the IC50 (pIC50) in assay [1] and in assay [2] was 5.00 to 9.00 throughout.

Turning to `Cc1ncoc1C(=O)N1CCC(NC(=O)O[C@@H]2CCN(c3cn[nH]c(=O)c3Cl)C2)CC1` [P-0503, (R)-1-(5-chloro-6-oxo-1,6-dihydropyridazin-4-yl)pyrrolidin-3-yl (1-(4-methyloxazole-5-carbonyl)piperidin-4-yl)carbamate], the pIC50 in assay [1] and in assay [2] was 5.00 to 9.00 each time.

In the case of `Cc1noc(C)c1C(=O)N1CCC(NC(=O)O[C@@H]2CCN(c3cn[nH]c(=O)c3Cl)C2)CC1` [P-0504, (R)-1-(5-chloro-6-oxo-1,6-dihydropyridazin-4-yl)pyrrolidin-3-yl (1-(3,5-dimethylisoxazole-4-carbonyl)piperidin-4-yl)carbamate], the pIC50 in assay [1] and in assay [2] was 5.00 to 9.00 throughout.

`Cc1nonc1C(=O)N1CCC(NC(=O)O[C@@H]2CCN(c3cn[nH]c(=O)c3Cl)C2)CC1` [P-0505, (R)-1-(5-chloro-6-oxo-1,6-dihydropyridazin-4-yl)pyrrolidin-3-yl (1-(4-methyl-1,2,5-oxadiazole-3-carbonyl)piperidin-4-yl)carbamate]: the pIC50 in assay [1] and in assay [2] was 5.00 to 9.00 each time.

As to `O=C(NC1CCCC(F)(F)C1)O[C@H]1CN(c2cn[nH]c(=O)c2Cl)C[C@@H]1F` (stereo partly drawn) [P-0506, (3S,4S)-1-(5-chloro-6-oxo-1,6-dihydropyridazin-4-yl)-4-fluoropyrrolidin-3-yl (3,3-difluorocyclohexyl)carbamate], the pIC50 in assay [1] and in assay [2] was 5.00 to 9.00 each time.
